Reference: patent publication US20150291598A1 (NOVARTIS AG, priority 2012, published 2015)

tested on: P. falciparum (NF54 or 3D7 strain); assay: Assay for P. falciparum proliferation in infected human blood cells (SYBR Green); type: cell-based, Plasmodium falciparum; conditions: Plasmodium falciparum, Erythrocyte, 72 h, NF54 or 3D7 infected human erythrocytes, 72 hours; read-out: EC50 (nM), inhibitory efficacy in delaying P. falciparum proliferation in infected human blood cells
Summary of the method: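 Infected erythrocytes (NF54 or 3D7; final 2.5% hematocrit, 0.3% parasitemia) were incubated with compounds for 72 h at 37 °C in low oxygen (3% O2, 4% CO2, 93% N2).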

Going from `CN(C(=O)c1cn2c(-c3ccc(C(F)(F)F)cc3)cnc2cn1)c1ccc(Cl)nc1Cl` [Compound 342, N-(2,6-dichloropyridin-3-yl)-N-methyl-3-[4-(trifluoromethyl)phenyl]imidazo[1,2-a]pyrazine-6-carboxamide] to `Cc1cccc(N(C)C(=O)c2cn3c(-c4ccc(C(F)(F)F)cc4)cnc3cn2)n1` [Compound 345, N-methyl-N-(6-methylpyridin-2-yl)-3-[4-(trifluoromethyl)phenyl]imidazo[1,2-a]pyrazine-6-carboxamide], the EC50 rises from 393 nM to 2300 nM (5.9-fold).

`CN(C(=O)c1cn2c(-c3ccc(C(=O)NC4CC4)cc3)cnc2cn1)c1ccc(Cl)nc1` [Compound 343, N-(6-chloropyridin-3-yl)-3-[4-(cyclopropylcarbamoyl)phenyl]-N-methylimidazo[1,2-a]pyrazine-6-carboxamide] and `CN(C(=O)c1cn2c(-c3ccc4[nH]ncc4c3)cnc2cn1)c1ccc(Cl)nc1` [Compound 349, N-(6-chloropyridin-3-yl)-3-(1H-indazol-5-yl)-N-methylimidazo[1,2-a]pyrazine-6-carboxamide] are within 1.5-fold of each other in EC50: 6780 nM for the first, 4680 nM for the second.

First: CN(C)c1ncc(-c2cnc3cnc(C(=O)N(C)c4ccc(C#N)cc4)cn23)cn1 [Compound 344, N-(4-cyanophenyl)-3-[2-(dimethylamino)pyrimidin-5-yl]-N-methylimidazo[1,2-a]pyrazine-6-carboxamide]
Second: CN(C)c1ccc(-c2cnc3cnc(C(=O)N(C)c4ccc(Cl)nc4)cn23)cn1 [Compound 357, N-(6-chloropyridin-3-yl)-3-[6-(dimethylamino)pyridin-3-yl]-N-methylimidazo[1,2-a]pyrazine-6-carboxamide]
The EC50 of the first is 1.8-fold lower: 2990 nM for the first, 5490 nM for the second. The first is the more potent here.

Compared with `CN(C(=O)c1cn2c(-c3ccc(C(F)(F)F)cc3)cnc2cn1)c1ccccc1OC(F)F` [Compound 346, N-[2-(difluoromethoxy)phenyl]-N-methyl-3-[4-(trifluoromethyl)phenyl]imidazo[1,2-a]pyrazine-6-carboxamide], `CN(Cc1ccccc1)C(=O)c1cn2c(-c3ccc(C(F)(F)F)cc3)cnc2cn1` [Compound 370, N-benzyl-N-methyl-3-[4-(trifluoromethyl)phenyl]imidazo[1,2-a]pyrazine-6-carboxamide] is 34-fold higher in EC50: 242 nM for the first, 8200 nM for the second. The first is the more potent here.

First: CN(c1cn2c(-c3ccc(C(F)(F)F)cc3)cnc2cn1)S(=O)(=O)c1ccc(C#N)cc1 [Compound 347, 4-cyano-N-methyl-N-{3-[4-(trifluoromethyl)phenyl]imidazo[1,2-a]pyrazin-6-yl}benzene-1-sulfonamide]
Second: CN(C(=O)c1cn2c(-c3ccc(C#N)cc3)cnc2cn1)c1ccc(C(F)(F)F)cc1 [Compound 369, 3-(4-cyanophenyl)-N-methyl-N-[4-(trifluoromethyl)phenyl]imidazo[1,2-a]pyrazine-6-carboxamide]
The EC50 of the first is 2.8-fold higher: 3260 nM for the first, 1160 nM for the second. The second is the more potent here.

First: CN(C(=O)c1cn2c(-c3ccc(C(F)(F)F)cc3)cnc2cn1)c1cc(C(F)(F)F)ccn1 [Compound 348, N-methyl-3-[4-(trifluoromethyl)phenyl]-N-[4-(trifluoromethyl)pyridin-2-yl]imidazo[1,2-a]pyrazine-6-carboxamide]
Second: COc1ccnc(N(C)C(=O)c2cn3c(-c4ccc(C(F)(F)F)cc4)cnc3cn2)c1 [Compound 358, -(4-methoxypyridin-2-yl)-N-methyl-3-[4-(trifluoromethyl)phenyl]imidazo[1,2-a]pyrazine-6-carboxamide]
The EC50 of the first is 4-fold higher: 4690 nM for the first, 1170 nM for the second. The second is the more potent here.

`CC1(C)CN(C(=O)c2cn3c(-c4ccc(C(F)(F)F)cc4)cnc3cn2)c2ccc(C#N)cc2O1` [Compound 350, 2,2-dimethyl-4-({3-[4-(trifluoromethyl)phenyl]imidazo[1,2-a]pyrazin-6-yl}carbonyl)-3,4-dihydro-2H-1,4-benzoxazine-7-carbonitrile] and `N#Cc1ccc(CNC(=O)c2cn3c(-c4ccc(C(F)(F)F)cc4)cnc3cn2)cc1` [Compound 362, -[(4-cyanophenyl)methyl]-3-[4-(trifluoromethyl)phenyl]imidazo[1,2-a]pyrazine-6-carboxamide] cannot be ordered by EC50: greater than 5630 nM for the first, 6470 nM for the second.

`CN(C(=O)c1cn2c(-c3cccc(F)n3)cnc2cn1)c1ccc(C#N)cc1` [Compound 351, N-(4-cyanophenyl)-3-(6-fluoropyridin-2-yl)-N-methylimidazo[1,2-a]pyrazine-6-carboxamide] and `CN(C(=O)c1cn2c(-c3ncccc3Cl)cnc2cn1)c1ccc(C#N)cc1` [Compound 354, 3-(3-chloropyridin-2-yl)-N-(4-cyanophenyl)-N-methylimidazo[1,2-a]pyrazine-6-carboxamide] are within 1.5-fold of each other in EC50: 5620 nM for the first, 6070 nM for the second.

Compared with `CN(C(=O)c1cn2c(-c3ccc(OC(C)(C)C(N)=O)cc3)cnc2cn1)c1ccc(C#N)cc1` [Compound 352, 3-[4-(1-carbamoyl-1-methylethoxy)phenyl]-N-(4-cyanophenyl)-N-methylimidazo[1,2-a]pyrazine-6-carboxamide], `CN(C(=O)c1cn2c(-c3ccc(OCCN)cc3)cnc2cn1)c1ccc(C#N)cc1` [Compound 372, 3-[4-(2-aminoethoxyl)phenyl]-N-(4-cyanophenyl)-N-methylimidazo[1,2-a]pyrazine-6-carboxamide] is higher in EC50: 876 nM for the first, greater than 10000 nM for the second. The first is the more potent here.

Going from `COc1ccc(N(C)C(=O)c2cn3c(-c4ccc(C(F)(F)F)cc4)cnc3cn2)nc1` [Compound 353, N-(5-methoxypyridin-2-yl)-N-methyl-3-[4-(trifluoromethyl)phenyl]imidazo[1,2-a]pyrazine-6-carboxamide] to `CN(C(=O)c1cn2c(-c3ccc(C(F)(F)F)cc3)cnc2cn1)c1ccc(CN)cc1` [Compound 375, N-[4-(aminomethyl)phenyl]-N-methyl-3-[4-(trifluoromethyl)phenyl]imidazo[1,2-a]pyrazine-6-carboxamide], the EC50 rises from 3900 nM to greater than 6830 nM.

First: CN(C(=O)c1cn2c(-c3ccc(C(F)(F)F)cc3)cnc2cn1)c1cncc(Cl)c1 [Compound 355, N-(5-chloropyridin-3-yl)-N-methyl-3-[4-(trifluoromethyl)phenyl]imidazo[1,2-a]pyrazine-6-carboxamide]
Second: CN(C(=O)c1cn2c(-c3ccc(C(F)(F)F)cc3)cnc2cn1)c1nccs1 [Compound 356, N-methyl-N-(1,3-thiazol-2-yl)-3-[4-(trifluoromethyl)phenyl]imidazo[1,2-a]pyrazine-6-carboxamide]
The EC50 of the first is 3.2-fold lower: 2120 nM for the first, 6680 nM for the second. The first is the more potent here.

First: COC[C@@H]1CCCN1c1ccc(N(C)C(=O)c2cn3c(-c4ccc(C(F)(F)F)cc4)cnc3cn2)cn1 [Compound 359, N-{6-[(2S)-2-(methoxymethyl)pyrrolidin-1-yl]pyridin-3-yl}-N-methyl-3-[4-(trifluoromethyl)phenyl]imidazo[1,2-a]pyrazine-6-carboxamide]
Second: CN(C(=O)c1cn2c(-c3ccc(C(F)(F)F)cc3)cnc2cn1)c1ccc(-n2cncn2)nc1 [Compound 365, N-methyl-N-[6-(1H-1,2,4-triazol-1-yl)pyridin-3-yl]-3-[4-(trifluoromethyl)phenyl]imidazo[1,2-a]pyrazine-6-carboxamide]
The EC50 of the first is higher: greater than 10000 nM for the first, 6140 nM for the second.

`CN(C(=O)c1cn2c(-c3ccc4c(c3)OCCO4)cnc2cn1)c1ccc(Cl)nc1` [Compound 360, N-(6-chloropyridin-3-yl)-3-(2,3-dihydro-1,4-benzodioxin-6-yl)-N-methylimidazo[1,2-a]pyrazine-6-carboxamide] and `Cc1nnc(-c2ccc(-c3cnc4cnc(C(=O)N(C)c5ccc(Cl)nc5)cn34)cn2)o1` [Compound 367, N-(6-chloropyridin-3-yl)-N-methyl-3-[6-(5-methyl-1,3,4-oxadiazol-2-yl)pyridin-3-yl]imidazo[1,2-a]pyrazine-6-carboxamide] cannot be ordered by EC50: greater than 4570 nM for the first, greater than 9280 nM for the second.

First: CC(=O)Nc1ccc(-c2cnc3cnc(C(=O)N(C)c4ccc(C)cn4)cn23)cc1 [Compound 361, 3-(4-acetamidophenyl)-N-methyl-N-(5-methylpyridin-2-yl)imidazo[1,2-a]pyrazine-6-carboxamide]
Second: CC(=O)Nc1ccc(-c2cnc3cnc(C(=O)N(C)c4ccc(C)cn4)cn23)cn1 [Compound 373, 3-(6-acetamidopyridin-3-yl)-N-methyl-N-(5-methylpyridin-2-yl)imidazo[1,2-a]pyrazine-6-carboxamide]
The EC50 of the first is lower: 5150 nM for the first, greater than 9880 nM for the second. The first is the more potent here.

`CC(C)S(=O)(=O)Nc1ccc(-c2cnc3cnc(C(=O)N(C)c4ccc(C#N)cc4)cn23)cc1` [Compound 363, N-(4-cyanophenyl)-N-methyl-3-[4-(propane-2-sulfonamido)phenyl]imidazo[1,2-a]pyrazine-6-carboxamide] and `Cc1nc2cnc(C(=O)Nc3ccc(C#N)cc3)cn2c1-c1ccc(C(F)(F)F)cc1` [Compound 376, N-(4-cyanophenyl)-2-methyl-3-[4-(trifluoromethyl)phenyl]imidazo[1,2-a]pyrazine-6-carboxamide] are within 1.5-fold of each other in EC50: 7020 nM for the first, 9490 nM for the second.

First: CC(C)c1nc(-c2cnc3cnc(C(=O)N(C)c4ccc(Cl)nc4)cn23)cs1 [Compound 364, N-(6-chloropyridin-3-yl)-N-methyl-3-[2-(propan-2-yl)-1,3-thiazol-4-yl]imidazo[1,2-a]pyrazine-6-carboxamide]
Second: NC(=O)c1ccc(NC(=O)c2cn3c(-c4ccc(C(F)(F)F)cc4)cnc3cn2)nc1 [Compound 371, 2-C-3-[4-(trifluoromethyl)phenyl]imidazo[1,2-a]pyrazine-6-pyridine-2,5-dicarboxamide]
The EC50 of the first is lower: 8240 nM for the first, greater than 10000 nM for the second. The first is the more potent here.

`CN(C(=O)c1ccc(OC(F)(F)F)cc1)c1cn2c(-c3ccc(C(F)(F)F)cc3)cnc2cn1` [Compound 366, N-methyl-4-(trifluoromethoxy)-N-{3-[4-(trifluoromethyl)phenyl]imidazo[1,2-a]pyrazin-6-yl}benzamide] and `CCn1nccc1NC(=O)c1cn2c(-c3ccc(C(F)(F)F)cc3)cnc2cn1` [Compound 368, N-(1-ethyl-1H-pyrazol-5-yl)-3-[4-(trifluoromethyl)phenyl]imidazo[1,2-a]pyrazine-6-carboxamide] cannot be ordered by EC50: greater than 6250 nM for the first, 7040 nM for the second.

With `O=C(c1cn2c(-c3ccc(C(F)(F)F)cc3)cnc2cn1)N1CCOCC1` [Compound 374, 4-({3-[4-(trifluoromethyl)phenyl]imidazo[1,2-a]pyrazin-6-yl}carbonyl)morpholine] the EC50 was greater than 9820 nM.
